#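 GI50 marks 50% less growth. TGI is the concentration that stops growth completely.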
# How the values were obtained:
# Test in all cases: inhibition of tumour cell growth, NCI panel, 384-well format
# HCC-2998 colon = tested on: HCC-2998 colon
# SF-295 CNS = tested on: SF-295 CNS
# SK-MEL-5 melanoma = tested on: SK-MEL-5 melanoma
# A549 NSCLC = tested on: A549 NSCLC
# SNB-19 CNS = tested on: SNB-19 CNS
# OVCAR-4 ovarian = tested on: OVCAR-4 ovarian
# MCF7 breast = tested on: MCF7 breast
# RXF 393 renal = tested on: RXF 393 renal
# NCI-H460 NSCLC = tested on: NCI-H460 NSCLC
# SF-268 CNS = tested on: SF-268 CNS
# MALME-3M melanoma = tested on: MALME-3M melanoma
# ACHN renal = tested on: ACHN renal
# SK-MEL-2 melanoma = tested on: SK-MEL-2 melanoma
# M14 melanoma = tested on: M14 melanoma
# DU-145 prostate = tested on: DU-145 prostate
# SN12C renal = tested on: SN12C renal
# HCT-116 colon = tested on: HCT-116 colon
# K-562 leukemia = tested on: K-562 leukemia
# SR leukemia = tested on: SR leukemia
# UACC-62 melanoma = tested on: UACC-62 melanoma
# HCT-15 colon = tested on: HCT-15 colon
# CAKI-1 renal = tested on: CAKI-1 renal
# 786-0 renal = tested on: 786-0 renal
# OVCAR-8 ovarian = tested on: OVCAR-8 ovarian
# HL-60(TB) leukemia = tested on: HL-60(TB) leukemia
# HOP-92 NSCLC = tested on: HOP-92 NSCLC
# T-47D breast = tested on: T-47D breast
# CCRF-CEM leukemia = tested on: CCRF-CEM leukemia
# NCI-H226 lung = tested on: NCI-H226 lung
# SW-620 colon = tested on: SW-620 colon
# OVCAR-5 ovarian = tested on: OVCAR-5 ovarian
# MDA-MB-435 melanoma = tested on: MDA-MB-435 melanoma
# OVCAR-3 ovarian = tested on: OVCAR-3 ovarian
# UACC-257 melanoma = tested on: UACC-257 melanoma
# SF-539 CNS = tested on: SF-539 CNS
# NCI-H23 lung = tested on: NCI-H23 lung
# PC-3 prostate = tested on: PC-3 prostate
# SK-MEL-28 melanoma = tested on: SK-MEL-28 melanoma
# UO-31 renal = tested on: UO-31 renal
# MOLT-4 leukemia = tested on: MOLT-4 leukemia
# IGROV1 ovarian = tested on: IGROV1 ovarian
# NCI/ADR-RES ovarian = tested on: NCI/ADR-RES ovarian
# MDA-MB-231 breast = tested on: MDA-MB-231 breast
# COLO 205 colon = tested on: COLO 205 colon
# A498 renal = tested on: A498 renal
# HT29 colon = tested on: HT29 colon
# HOP-62 NSCLC = tested on: HOP-62 NSCLC
# MDA-MB-468 breast = tested on: MDA-MB-468 breast
# U251 glioblastoma = tested on: U251 glioblastoma
# KM12 colon = tested on: KM12 colon
# NCI-H322M lung = tested on: NCI-H322M lung
# SK-OV-3 ovarian = tested on: SK-OV-3 ovarian
# BT-549 breast = tested on: BT-549 breast
# LOX IMVI melanoma = tested on: LOX IMVI melanoma
# RPMI-8226 leukemia = tested on: RPMI-8226 leukemia
# TK-10 renal = tested on: TK-10 renal
# NCI-H522 lung = tested on: NCI-H522 lung
# EKVX NSCLC = tested on: EKVX NSCLC
# SNB-75 CNS = tested on: SNB-75 CNS
# HS 578T breast = tested on: HS 578T breast
structure (smiles),measurement,setting,value
COc1cc2c(Oc3ccc(NC(=O)C4(C(=O)Nc5ccc(F)cc5)CC4)cc3F)ccnc2cc1OCCCN1CCOCC1,GI50,HCC-2998 colon,1110 nM
same,TGI,HCC-2998 colon,2320 nM
same,GI50,SF-295 CNS,94 nM
same,TGI,SF-295 CNS,1510 nM
same,GI50,SK-MEL-5 melanoma,333 nM
same,TGI,SK-MEL-5 melanoma,1460 nM
same,GI50,A549 NSCLC,329 nM
same,TGI,A549 NSCLC,1170 nM
same,GI50,SNB-19 CNS,1180 nM
same,TGI,SNB-19 CNS,2410 nM
same,GI50,OVCAR-4 ovarian,409 nM
same,TGI,OVCAR-4 ovarian,1770 nM
same,GI50,MCF7 breast,331 nM
same,TGI,MCF7 breast,1440 nM
same,GI50,RXF 393 renal,158 nM
same,TGI,RXF 393 renal,548 nM
same,GI50,NCI-H460 NSCLC,219 nM
same,TGI,NCI-H460 NSCLC,1130 nM
same,GI50,SF-268 CNS,781 nM
same,TGI,SF-268 CNS,2020 nM
same,GI50,MALME-3M melanoma,185 nM
same,TGI,MALME-3M melanoma,541 nM
same,GI50,ACHN renal,205 nM
same,TGI,ACHN renal,718 nM
same,GI50,SK-MEL-2 melanoma,300 nM
same,TGI,SK-MEL-2 melanoma,1240 nM
same,GI50,M14 melanoma,293 nM
same,TGI,M14 melanoma,882 nM
same,GI50,DU-145 prostate,1160 nM
same,TGI,DU-145 prostate,2390 nM
same,GI50,SN12C renal,175 nM
same,TGI,SN12C renal,1060 nM
same,GI50,HCT-116 colon,379 nM
same,TGI,HCT-116 colon,1570 nM
same,GI50,K-562 leukemia,40.3 nM
same,TGI,K-562 leukemia,143 nM
same,GI50,SR leukemia,131 nM
same,TGI,SR leukemia,261 nM
same,GI50,UACC-62 melanoma,369 nM
same,TGI,UACC-62 melanoma,1550 nM
same,GI50,HCT-15 colon,419 nM
same,TGI,HCT-15 colon,1590 nM
same,GI50,CAKI-1 renal,183 nM
same,TGI,CAKI-1 renal,584 nM
same,GI50,786-0 renal,1190 nM
same,TGI,786-0 renal,2420 nM
same,GI50,OVCAR-8 ovarian,1190 nM
same,TGI,OVCAR-8 ovarian,2430 nM
same,GI50,HL-60(TB) leukemia,194 nM
same,TGI,HL-60(TB) leukemia,387 nM
same,GI50,HOP-92 NSCLC,107 nM
same,TGI,HOP-92 NSCLC,421 nM
same,GI50,T-47D breast,1050 nM
same,TGI,T-47D breast,2230 nM
same,GI50,CCRF-CEM leukemia,52.8 nM
same,TGI,CCRF-CEM leukemia,189 nM
same,GI50,NCI-H226 lung,276 nM
same,TGI,NCI-H226 lung,966 nM
same,GI50,SW-620 colon,201 nM
same,TGI,SW-620 colon,747 nM
same,GI50,OVCAR-5 ovarian,911 nM
same,TGI,OVCAR-5 ovarian,2120 nM
same,GI50,MDA-MB-435 melanoma,331 nM
same,TGI,MDA-MB-435 melanoma,1200 nM
same,GI50,OVCAR-3 ovarian,554 nM
same,TGI,OVCAR-3 ovarian,1780 nM
same,GI50,UACC-257 melanoma,265 nM
same,TGI,UACC-257 melanoma,859 nM
same,GI50,SF-539 CNS,135 nM
same,TGI,SF-539 CNS,489 nM
same,GI50,NCI-H23 lung,46.3 nM
same,TGI,NCI-H23 lung,642 nM
same,GI50,PC-3 prostate,1300 nM
same,TGI,PC-3 prostate,2580 nM
same,GI50,SK-MEL-28 melanoma,361 nM
same,TGI,SK-MEL-28 melanoma,1430 nM
same,GI50,UO-31 renal,314 nM
same,TGI,UO-31 renal,1110 nM
same,GI50,MOLT-4 leukemia,42.5 nM
same,TGI,MOLT-4 leukemia,137 nM
same,GI50,IGROV1 ovarian,275 nM
same,TGI,IGROV1 ovarian,990 nM
same,GI50,NCI/ADR-RES ovarian,436 nM
same,TGI,NCI/ADR-RES ovarian,1600 nM
same,GI50,MDA-MB-231 breast,361 nM
same,TGI,MDA-MB-231 breast,1660 nM
same,GI50,COLO 205 colon,211 nM
same,TGI,COLO 205 colon,460 nM
same,GI50,A498 renal,838 nM
same,TGI,A498 renal,2080 nM
same,GI50,HT29 colon,324 nM
same,TGI,HT29 colon,1220 nM
same,GI50,HOP-62 NSCLC,668 nM
same,TGI,HOP-62 NSCLC,1930 nM
same,GI50,MDA-MB-468 breast,270 nM
same,TGI,MDA-MB-468 breast,547 nM
same,GI50,U251 glioblastoma,1140 nM
same,TGI,U251 glioblastoma,2360 nM
same,TGI,KM12 colon,931 nM
same,GI50,NCI-H322M lung,866 nM
same,TGI,NCI-H322M lung,2100 nM
same,GI50,SK-OV-3 ovarian,522 nM
same,TGI,SK-OV-3 ovarian,1790 nM
same,GI50,BT-549 breast,440 nM
same,TGI,BT-549 breast,1510 nM
same,GI50,LOX IMVI melanoma,386 nM
same,TGI,LOX IMVI melanoma,945 nM
same,GI50,RPMI-8226 leukemia,202 nM
same,TGI,RPMI-8226 leukemia,492 nM
same,GI50,TK-10 renal,648 nM
same,TGI,TK-10 renal,1910 nM
same,GI50,NCI-H522 lung,211 nM
same,TGI,NCI-H522 lung,817 nM
C[C@@H](O)[C@@H](C)Oc1nc(Nc2ccc(S(=N)(=O)C3CC3)cc2)ncc1C(F)(F)F (stereo not given in full),GI50,HCC-2998 colon,12 nM
same,TGI,HCC-2998 colon,33.3 nM
same,GI50,SF-295 CNS,30.9 nM
same,TGI,SF-295 CNS,> 100000 nM
same,GI50,SK-MEL-5 melanoma,< 10 nM
same,TGI,SK-MEL-5 melanoma,21.5 nM
same,GI50,A549 NSCLC,33.4 nM
same,TGI,A549 NSCLC,> 100000 nM
same,GI50,OVCAR-4 ovarian,21.3 nM
same,TGI,OVCAR-4 ovarian,56.9 nM
same,GI50,MCF7 breast,24.1 nM
same,TGI,MCF7 breast,> 100000 nM
same,GI50,NCI-H460 NSCLC,12 nM
same,TGI,NCI-H460 NSCLC,28.5 nM
same,GI50,EKVX NSCLC,23.8 nM
same,TGI,EKVX NSCLC,52 nM
same,GI50,SF-268 CNS,20.1 nM
same,TGI,SF-268 CNS,58.6 nM
same,GI50,MALME-3M melanoma,23.5 nM
same,TGI,MALME-3M melanoma,46.6 nM
same,GI50,M14 melanoma,19.7 nM
same,TGI,M14 melanoma,85.2 nM
same,GI50,SNB-75 CNS,16.4 nM
same,TGI,SNB-75 CNS,33 nM
same,GI50,SN12C renal,16.6 nM
same,TGI,SN12C renal,36.4 nM
same,GI50,HCT-116 colon,12.5 nM
same,TGI,HCT-116 colon,> 100000 nM
same,GI50,SR leukemia,< 10 nM
same,TGI,SR leukemia,13.2 nM
same,GI50,UACC-62 melanoma,12.7 nM
same,TGI,UACC-62 melanoma,27.9 nM
same,GI50,CAKI-1 renal,32.2 nM
same,TGI,CAKI-1 renal,> 100000 nM
same,GI50,OVCAR-8 ovarian,18.8 nM
same,TGI,OVCAR-8 ovarian,73.7 nM
same,GI50,HL-60(TB) leukemia,< 10 nM
same,TGI,HL-60(TB) leukemia,20.7 nM
same,GI50,OVCAR-5 ovarian,16.8 nM
same,TGI,OVCAR-5 ovarian,54.5 nM
same,GI50,MDA-MB-435 melanoma,23.3 nM
same,TGI,MDA-MB-435 melanoma,64.5 nM
same,GI50,OVCAR-3 ovarian,18.2 nM
same,TGI,OVCAR-3 ovarian,43.9 nM
same,GI50,UACC-257 melanoma,17.7 nM
same,TGI,UACC-257 melanoma,37.2 nM
same,GI50,SF-539 CNS,17.9 nM
same,TGI,SF-539 CNS,36.4 nM
same,GI50,NCI-H23 lung,17.1 nM
same,TGI,NCI-H23 lung,36.1 nM
same,GI50,SK-MEL-28 melanoma,16.4 nM
same,TGI,SK-MEL-28 melanoma,39.5 nM
same,GI50,HS 578T breast,24.4 nM
same,TGI,HS 578T breast,62.8 nM
same,GI50,MOLT-4 leukemia,20.2 nM
same,TGI,MOLT-4 leukemia,35 nM
same,GI50,NCI/ADR-RES ovarian,67.3 nM
same,TGI,NCI/ADR-RES ovarian,406 nM
same,GI50,MDA-MB-231 breast,28.3 nM
same,TGI,MDA-MB-231 breast,> 100000 nM
same,GI50,COLO 205 colon,16.4 nM
same,TGI,COLO 205 colon,42.6 nM
same,GI50,HOP-62 NSCLC,14.4 nM
same,TGI,HOP-62 NSCLC,44.8 nM
same,GI50,MDA-MB-468 breast,15.9 nM
same,TGI,MDA-MB-468 breast,30.2 nM
same,GI50,U251 glioblastoma,20.2 nM
same,TGI,U251 glioblastoma,60 nM
same,GI50,KM12 colon,23.4 nM
same,TGI,KM12 colon,> 100000 nM
same,GI50,NCI-H322M lung,21.2 nM
same,TGI,NCI-H322M lung,46.7 nM
same,GI50,SK-OV-3 ovarian,41.7 nM
same,TGI,SK-OV-3 ovarian,> 100000 nM
same,GI50,BT-549 breast,12.4 nM
same,TGI,BT-549 breast,27.1 nM
same,GI50,LOX IMVI melanoma,14.6 nM
same,TGI,LOX IMVI melanoma,48.9 nM
same,GI50,RPMI-8226 leukemia,15.2 nM
same,TGI,RPMI-8226 leukemia,28.9 nM
same,GI50,NCI-H522 lung,< 10 nM
same,TGI,NCI-H522 lung,24.9 nM
